Here are results for eleven molecules from ChEMBL document CHEMBL4118240, “'Tethering' fragment-based drug discovery to identify inhibitors of the essential respiratory membrane protein type II NADH dehydrogenase” (Bioorg Med Chem Lett, 2018).

The nature of experiment [1]: Inhibition of C-terminal His-tagged Caldalkalibacillus thermarum TA2.A1 NDH2 R382C mutant preincubated for 1 hr followed by NADH addition measured after 8 mins.
Experiment [2] in a line: Inhibition of C-terminal His-tagged Caldalkalibacillus thermarum TA2.A1 NDH2 R347C mutant preincubated for 1 hr followed by NADH addition measured after 8 mins.
The nature of experiment [3]: Inhibition of wild type Caldalkalibacillus thermarum TA2.A1 NDH2 preincubated for 1 hr followed by NADH addition measured after 8 mins.
In experiment [4] the test system is Caldalkalibacillus thermarum TA2.A1. In words: Selectivity ratio of IC50 for wild type Caldalkalibacillus thermarum TA2.A1 NDH2 to IC50 for C-terminal His-tagged Caldalkalibacillus thermarum TA2.A1 NDH2 R347C mutant.
The test system is the same in experiment [5]. The experiment is described as follows: Selectivity ratio of IC50 for wild type Caldalkalibacillus thermarum TA2.A1 NDH2 to IC50 for C-terminal His-tagged Caldalkalibacillus thermarum TA2.A1 NDH2 R382C mutant.

In general, IC50 refers to the concentration at which inhibition is half-maximal. A higher IC50 goes with weaker potency. Regarding `CN(C)CCSSCCNC(=O)c1cccc2cc[nH]c12`, the IC50 in experiment [1] worked out at 32.6 µM; in experiment [2] it was 110 µM; in experiment [3] it was 61.9 µM. For the same molecule, the Ratio IC50 in experiment [4] and in experiment [5] was 0.9 each time.

In the case of `NCCSSCCNC(=O)C1CCN(C(=O)c2ccc3ncsc3c2)CC1`, the concentration for half-maximal inhibition (IC50) in experiment [1] is 18.6 µM; in experiment [2], 9.9 µM; in experiment [3], 52 µM. Besides, the Ratio IC50 in experiment [4] and in experiment [5] was 3.7 throughout.

On to `CN(C)CCSSCCNC(=O)c1ccc(C#Cc2ccccc2)o1`, for which the 50% inhibitory concentration (IC50) in experiment [1] was 6.3 µM; in experiment [2], 5.9 µM; in experiment [3], 5.6 µM. Besides, the Ratio IC50 in experiment [4] and in experiment [5] was 0.9 throughout.

Take `CN(C)CCSSCCNC(=O)CCC(=O)c1ccccn1`: the figures for the concentration for half-maximal inhibition (IC50) in experiment [1], in experiment [2] and in experiment [3] were 3.2 µM, 5.9 µM and 42.2 µM, respectively. Further, the Ratio IC50 in experiment [4] and in experiment [5] was 9.3 in each case.

Take `CN(C)CCSSCCCNC(=O)c1cccc(N(C)C)c1`: the 50% inhibitory concentration (IC50) turned out to be 11.5 µM in experiment [1], 14.5 µM in experiment [2] and 36 µM in experiment [3]. For the same molecule, the Ratio IC50 in experiment [4] and in experiment [5] was 2.8 in each case.

For the molecule `CN(C)CCSSCCNC(=O)C(CC(=O)c1ccccc1)c1cc2ccccc2n1C` (stereo unspecified), the values for the IC50 in experiment [1], in experiment [2] and in experiment [3] were 7 µM, 12.9 µM and 12.8 µM, respectively. In addition, the Ratio IC50 in experiment [4] and in experiment [5] was 1.3 in each case.

For `CN(C)CCSSCCNC(=O)[C@H]1CCCN(C(=O)c2ccc(-n3cccc3)cc2)C1`, the half-maximal inhibitory concentration (IC50) in experiment [1] came out at 26.9 µM; in experiment [2], 26.5 µM; in experiment [3] it was 80.3 µM. Further, the Ratio IC50 in experiment [4] and in experiment [5] was 3 throughout.

`CN(C)CCSSCCNC(=O)c1c(N)cccc1Cl`: the values for the IC50 in experiment [1], in experiment [2] and in experiment [3] were 33.5 µM, 60.8 µM and 38.1 µM, respectively. In addition, the Ratio IC50 in experiment [4] and in experiment [5] was 0.8 each time.

In turn, `CN1CCN(CCCN2c3ccccc3Sc3ccc(C(F)(F)F)cc32)CC1` [TRIFLUOPERAZINE] had an IC50 in experiment [3] of 50 µM.

As to `CN(C)CCSSCCNC(=O)[C@H]1CCCN(C(=O)c2cc3cccc(O)c3cc2O)C1`, the IC50 in experiment [1] came out at 13 µM; in experiment [2] it was 21.9 µM; in experiment [3], 11.3 µM. Also, the Ratio IC50 in experiment [4] and in experiment [5] was 0.6 each time.

For `CN(C)CCSSCCn1cc(-c2ccc(N(C)C)cc2)nn1`, the values for the half-inhibitory concentration (IC50) in experiment [1], in experiment [2] and in experiment [3] were 24 µM, 56.8 µM and 147 µM, respectively. In addition, the Ratio IC50 in experiment [4] and in experiment [5] was 3.6 throughout.
